Measurements reported in patent US12410160B2 (Gilead Sciences, Inc., priority 2021, dated 2025).
Where two headings read alike, the source gives them in different places.

Experiments:
HepG2 cells = test: F1P Cell-Based Assay (EC50), 13C6-fructose-1-phosphate in HepG2 cells (cell culture medium or 50% human plasma)
Method: F1P Cell-Based Assay (EC50)
Compounds were serially diluted (1:3) in DMSO. The LabCyte ECHO Acoustic dispenser system was used to pre-spot the assay plates (Greiner, Catalog #781091) with 400 nL (200-fold final dilution in 80 μL assay volume) of compound. 25,000 cells/well HepG2 cells (ATCC Catalog #HB-8065) were plated in a 40 μL volume/well in DMEM medium with 4.5 g/L glucose, 1× Penicillin-Streptomycin-Glutamine, and 10% FBS, using a BioTEK dispenser in a biological hood and incubated overnight at 37° C., 5% CO2, 90% humidity. 40 μL/well serum free assay medium (for F1P assay in cell culture medium), or 40 μL/well 100% human plasma (for F1P assay in 50% human plasma) were then added to the plates on the following day, and incubated for 1 hour at 37° C., 5% CO2, 90% humidity. ^13C6-labelled fructose (Sigma, Catalog #587621) in sterile PBS was added to the plates at a final concentration of 5 mM. The plates were incubated for 2 hours at 37° C., 5% CO2, 90% humidity. The assay was quenched by washing the cells with sterile PBS and adding 60 μL/well of 80% (v/v) methanol, 2 mM ammonium acetate and 2.5 μM Crotonyl-CoA, using a BioTEK washer-dispenser system. The plates were then sealed and stored in the −80° C. freezer until ready for RapidFire readout. ^13C6-fructose-1-phosphate in individual wells was quantified using the Agilent RapidFire High-Throughput MS system in negative mode using a […]. Mobile Phase 1 consisted of 20 mM ammonium acetate with 0.05% acetic acid in 100% methanol. Mobile phase 2 consisted of 5 mM octylamine in water (pH adjusted to 5 using acetic acid). F1P signals in individual wells were normalized by crotonyl CoA internal control.

human KHK-C = human KHK-C (Homo sapiens (Human), UniProt P50053); test: KHK Biochemical Assay (IC50), ADP-Glo, KHK-C; settings: average of at least two separate assays
human KHK-C, sequence (P50053 whole entry): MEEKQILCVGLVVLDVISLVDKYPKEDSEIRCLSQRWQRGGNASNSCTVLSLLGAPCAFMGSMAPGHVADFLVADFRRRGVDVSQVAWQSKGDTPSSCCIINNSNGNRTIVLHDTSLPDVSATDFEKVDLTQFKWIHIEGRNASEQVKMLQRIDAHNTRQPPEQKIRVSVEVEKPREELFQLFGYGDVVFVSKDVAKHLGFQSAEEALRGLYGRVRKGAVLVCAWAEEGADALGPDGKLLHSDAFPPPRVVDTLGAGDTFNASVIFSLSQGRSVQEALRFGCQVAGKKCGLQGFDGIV
In short: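 Luminescent ADP-Glo read-out of ADP made by His-tagged KHK (BL21 (DE3) expression, Ni-NTA). Enzyme and compound sat together 30 min before ATP/fructose addition, then reacted 4 h at RT in Hepes pH 7.4 buffer with KCl, MgCl2, Triton-X. Quench 1 h, detection 1 h.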

[1] = Homo sapiens, HepG2, HepG2 cells, 50% human plasma, read-out: F1P 50% HP EC50
[2] = Homo sapiens, HepG2, read-out: F1P 10% FBS EC50, HepG2 cells, cell culture medium (10% FBS)
[3] = HepG2 cells, 50% human plasma, read-out: F1P 50% HP EC50
[4] = read-out: F1P 10% FBS EC50, HepG2 cells, cell culture medium (10% FBS)

SMILES	EC50 (HepG2 cells; [1])	EC50 (HepG2 cells; [2])	IC50 (human KHK-C)	IC50 (human KHK-C; ADP-Glo)	EC50 (HepG2 cells; [3])	EC50 (HepG2 cells; [4])
NC1(c2ccc(-c3nc(N4CC(F)(F)[C@H]4CO)nc4c3CCC4(F)F)cc2)CS(=O)(=O)C1 (single isomer, unassigned) [Example 783]	> 500 nM	> 500 nM	98.7 nM	–	–	–
C[C@H]1[C@H](O)CN1c1nc(-c2cc(F)c3c(c2)OC[C@H]3NS(C)(=O)=O)c2c(n1)C(F)(F)CC2 (single isomer, unassigned) [Example 812]	40.3 nM	11.2 nM	–	0.7 nM	–	–
C[C@H]1CCN1c1nc2c(c(-c3cnc(C4(N)COC4)cn3)n1)CCC2 [Example 507, (S)-3-(5-(2-(2-methylazetidin-1-yl)-6,7-dihydro-5H-cyclopenta[d]pyrimidin-4-yl)pyrazin-2-yl)oxetan-3-amine]	247 nM	138 nM	73.6 nM	–	–	–
CN=S(C)(=O)c1cccc(-c2nc(N3C[C@@H](O)[C@@H]3C)nc3c2CCC3(F)F)c1 (stereo partly drawn) [Example 508, (3-(7,7-difluoro-2-((2S,3R)-3-hydroxy-2-methylazetidin-1-yl)-6,7-dihydro-5H-cyclopenta[d]pyrimidin-4-yl)phenyl)(methyl)(methylimino)-λ^6-sulfanone]	254 nM	126 nM	61.2 nM	–	–	–
C[C@H]1[C@H](O)CN1c1nc(-c2cccc(S(C)(=O)=O)c2)c2c(n1)C(F)(F)CC2 [Example 509, (2S,3R)-1-(7,7-difluoro-4-(3-(methylsulfonyl)phenyl)-6,7-dihydro-5H-cyclopenta[d]pyrimidin-2-yl)-2-methylazetidin-3-ol]	58.1 nM	25.1 nM	19.9 nM	–	–	–
CCS(=N)(=O)c1cccc(-c2nc(N3C[C@@H](O)[C@@H]3C)nc3c2CCC3(F)F)c1 (stereo partly drawn) [Example 511, (3-(7,7-difluoro-2-((2S,3R)-3-hydroxy-2-methylazetidin-1-yl)-6,7-dihydro-5H-cyclopenta[d]pyrimidin-4-yl)phenyl)(ethyl)(imino)-λ^6-sulfanone]	46.1 nM	34.6 nM	20.9 nM	–	–	–
C[C@H]1[C@H](O)CN1c1nc(-c2ccc(C3(N)COC3)c(C(F)(F)F)c2)c2c(n1)C(F)(F)CC2 [Example 514, (2S,3R)-1-(4-(4-(3-aminooxetan-3-yl)-3-(trifluoromethyl)phenyl)-7,7-difluoro-6,7-dihydro-5H-cyclopenta[d]pyrimidin-2-yl)-2-methylazetidin-3-ol]	72.3 nM	41.6 nM	10.6 nM	–	–	–
C[C@H]1[C@H](O)CN1c1nc(-c2ccc(C(F)(F)CN)cc2)c2c(n1)C(F)(F)CC2 [Example 515, (2S,3R)-1-(4-(4-(2-amino-1,1-difluoroethyl)phenyl)-7,7-difluoro-6,7-dihydro-5H-cyclopenta[d]pyrimidin-2-yl)-2-methylazetidin-3-ol]	126 nM	59.1 nM	29.7 nM	–	–	–
C[C@H]1[C@H](O)CN1c1nc(-c2ccc3c(c2)C2CC(C2)NC3=O)c2c(n1)C(F)(F)CC2 [Example 520, 7-(7,7-difluoro-2-((2S,3R)-3-hydroxy-2-methylazetidin-1-yl)-6,7-dihydro-5H-cyclopenta[d]pyrimidin-4-yl)-2,3,4,5-tetrahydro-1H-3,5-methanobenzo[c]azepin-1-one]	109 nM	49.8 nM	11.1 nM	–	–	–
C[C@H]1CCN1c1nc2c(c(-c3ccc(Cl)c(S(N)(=O)=O)c3)n1)CCC2 [Example 522, (S)-2-chloro-5-(2-(2-methylazetidin-1-yl)-6,7-dihydro-5H-cyclopenta[d]pyrimidin-4-yl)benzenesulfonamide]	454 nM	53.3 nM	44.5 nM	–	–	–

The remaining lines, values ahead:

EC50 (HepG2 cells; [1])	EC50 (HepG2 cells; [2])	IC50 (human KHK-C)	IC50 (human KHK-C; ADP-Glo)	EC50 (HepG2 cells; [3])	EC50 (HepG2 cells; [4])	SMILES
91.9 nM	119 nM	7.9 nM	–	–	–	NC1(c2ccc(-c3nc(N4CC(F)(F)[C@@H]4CO)nc4c3CCC4(F)F)cc2)CS(=O)(=O)C1 (single isomer, unassigned) [Example 784]
111 nM	63.5 nM	7.5 nM	–	–	–	C[C@H]1[C@H](O)CN1c1nc(-c2ccc3c(c2)CC[C@H]3NS(C)(=O)=O)c2c(n1)C(F)(F)CC2 [Example 473, N—((R)-5-(7,7-difluoro-2-((2S,3R)-3-hydroxy-2-methylazetidin-1-yl)-6,7-dihydro-5H-cyclopenta[d]pyrimidin-4-yl)-2,3-dihydro-1H-inden-1-yl)methanesulfonamide]
45.1 nM	22.5 nM	1 nM	–	–	–	C[C@H]1[C@H](O)CN1c1nc(-c2ccc3c(c2)CCC32COC(=O)N2)c2c(n1)C(F)(F)CC2 (stereo partly drawn) [Example 474, 5-(7,7-difluoro-2-((2S,3R)-3-hydroxy-2-methylazetidin-1-yl)-6,7-dihydro-5H-cyclopenta[d]pyrimidin-4-yl)-2,3-dihydrospiro[indene-1,4′-oxazolidin]-2′-one]
25.9 nM	6 nM	0.4 nM	–	–	–	COc1cc(-c2nc(N3C[C@@H](O)[C@@H]3C)nc3c2CCC3(F)F)cc2c1C(NS(C)(=O)=O)CO2 (stereo partly drawn) [Example 477, N-(6-(7,7-difluoro-2-((2S,3R)-3-hydroxy-2-methylazetidin-1-yl)-6,7-dihydro-5H-cyclopenta[d]pyrimidin-4-yl)-4-methoxy-2,3-dihydrobenzofuran-3-yl)methanesulfonamide]
23.7 nM	9.4 nM	0.6 nM	–	–	–	[2H]C1([2H])[C@@H](O)[C@H](C)N1c1nc(-c2ccc3c(c2)OC[C@@H]3NS(C)(=O)=O)c2c(n1)C(F)(F)CC2 [Example 480, N—((R)-6-(7,7-difluoro-2-((2S,3R)-3-hydroxy-2-methylazetidin-1-yl-4,4-d2)-6,7-dihydro-5H-cyclopenta[d]pyrimidin-4-yl)-2,3-dihydrobenzofuran-3-yl)methanesulfonamide]
43 nM	6.6 nM	0.3 nM	–	–	–	C[C@H]1[C@H](O)CN1c1nc(-c2ccc3c(c2)OCC32COC(=O)N2)c2c(n1)C(F)(F)CC2 (stereo partly drawn) [Example 481, 6-(7,7-difluoro-2-((2S,3R)-3-hydroxy-2-methylazetidin-1-yl)-6,7-dihydro-5H-cyclopenta[d]pyrimidin-4-yl)-2H-spiro[benzofuran-3,4′-oxazolidin]-2′-one]
23 nM	10.1 nM	2.2 nM	–	–	–	C[C@@H]1N(c2nc(-c3ccc4c(c3)CCNC43COC3)c3c(n2)C(F)(F)CC3)CC1(F)F [Example 519, (S)-6-(2-(3,3-difluoro-2-methylazetidin-1-yl)-7,7-difluoro-6,7-dihydro-5H-cyclopenta[d]pyrimidin-4-yl)-3,4-dihydro-2H-spiro[isoquinoline-1,3′-oxetane]]
> 100 nM	68.4 nM	9.8 nM	–	–	–	C[C@H]1[C@H](O)CN1c1nc(-c2ccc3c(c2)OCCNC32COC2)c2c(n1)C(F)(F)CC2 [Example 521, (2S,3R)-1-(4-(3,4-dihydro-2H-spiro[benzo[f][1,4]oxazepine-5,3′-oxetan]-8-yl)-7,7-difluoro-6,7-dihydro-5H-cyclopenta[d]pyrimidin-2-yl)-2-methylazetidin-3-ol]
51.3 nM	5.1 nM	0.7 nM	–	–	–	C[C@H]1[C@H](F)CN1c1nc(-c2ccc3c(c2)OC[C@@H]3NS(C)(=O)=O)c2c(n1)C(F)(F)CC2 [Example 523, N—((R)-6-(7,7-difluoro-2-((2S,3R)-3-fluoro-2-methylazetidin-1-yl)-6,7-dihydro-5H-cyclopenta[d]pyrimidin-4-yl)-2,3-dihydrobenzofuran-3-yl)methanesulfonamide]
60.1 nM	8.2 nM	1 nM	–	–	–	C[C@H]1[C@@H](F)CN1c1nc(-c2ccc3c(c2)OC[C@@H]3NS(C)(=O)=O)c2c(n1)C(F)(F)CC2 [Example 524, N—((R)-6-(7,7-difluoro-2-((2S,3S)-3-fluoro-2-methylazetidin-1-yl)-6,7-dihydro-5H-cyclopenta[d]pyrimidin-4-yl)-2,3-dihydrobenzofuran-3-yl)methanesulfonamide]
–	–	2.7 nM	–	65.3 nM	26.2 nM	COc1cc(-c2nc(N3C[C@@H](O)[C@@H]3C)nc3c2CCC3(F)F)cc2c1[C@@H](NS(C)(=O)=O)CO2 [Example 529, N-(6-(7,7-difluoro-2-((2S,3R)-3-hydroxy-2-methylazetidin-1-yl)-6,7-dihydro-5H-cyclopenta[d]pyrimidin-4-yl)-4-methoxy-2,3-dihydrobenzofuran-3-yl)methanesulfonamide]
–	–	1.5 nM	–	142 nM	29.7 nM	COc1cc(-c2nc(N3C[C@@H](O)[C@@H]3C)nc3c2CCC3(F)F)cc2c1[C@@H](NS(C)(=O)=O)CO2 [Example 530]
